Laboratory results published in publication PMC11396129, “Oxindole–benzothiazole hybrids as CDK2 inhibitors and anticancer agents: design, synthesis and biological evaluation” (BMC Chemistry, 2024).

How the values were obtained:
Type in all cases: cell-based, human
[1] = system: BT-549; test: NCI 60 panel growth inhibition (SRB), breast cancer; settings: BT-549, 10 μM
In short: (§1)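 Selected compounds progressed from a single-dose mean-graph screen to five-concentration testing. Percentage growth, with negative values indicating cell kill below Tz, was computed per level, giving TGI among three parameters.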

[2] = system: MCF7; test: as above; settings: MCF7, 10 μM
In short: as §1

[3] = system: T-47D; test: as above; settings: 10 μM
In short: as §1

[4] = system: MDA-MB-468; test: as above; settings: MDA-MB-468, 10 μM
In short: as §1

[5] = system: MDA-MB-231/ATCC; test: as above; settings: 10 μM
In short: as §1

[6] = system: HS 578T; test: as above; settings: 10 μM
In short: as §1

[7] = system: PC-3; test: NCI 60 panel growth inhibition (SRB), prostate cancer; settings: PC-3, 10 μM
In short: as §1

[8] = system: DU-145; test: as above; settings: DU-145, 10 μM
In short: as §1

[9] = system: UO-31; test: NCI 60 panel growth inhibition (SRB), renal cancer; settings: UO-31, 10 μM
In short: as §1

[10] = system: ACHN; test: NCI 60 panel growth inhibition (SRB), renal cancer; settings: 10 μM
In short: as §1

[11] = system: TK-10; test: NCI 60 panel growth inhibition (SRB), renal cancer; settings: TK-10, 10 μM
In short: as §1

[12] = system: CAKI-1; test: NCI 60 panel growth inhibition (SRB), renal cancer; settings: CAKI-1, 10 μM
In short: as §1

[13] = system: A498; test: NCI 60 panel growth inhibition (SRB), renal cancer; settings: A498, 10 μM
In short: as §1

[14] = system: SN12C; test: NCI 60 panel growth inhibition (SRB), renal cancer; settings: 10 μM
In short: as §1

[15] = system: RXF 393; test: NCI 60 panel growth inhibition (SRB), renal cancer; settings: RXF 393, 10 μM
In short: as §1

[16] = system: 786-0; test: NCI 60 panel growth inhibition (SRB), renal cancer; settings: 786-0, 10 μM
In short: as §1

[17] = system: MOLT-4; test: NCI 60 panel growth inhibition (SRB), leukemia; settings: MOLT-4, 10 μM
In short: as §1

[18] = system: RPMI-8226; test: NCI 60 panel growth inhibition (SRB), leukemia; settings: RPMI-8226, 10 μM
In short: as §1

[19] = system: K-562; test: NCI 60 panel growth inhibition (SRB), leukemia; settings: K-562, 10 μM
In short: as §1

[20] = system: HL-60(TB); test: NCI 60 panel growth inhibition (SRB), leukemia; settings: HL-60(TB), 10 μM
In short: as §1

[21] = system: CCRF-CEM; test: NCI 60 panel growth inhibition (SRB), leukemia; settings: 10 μM
In short: as §1

[22] = system: SR; test: NCI 60 panel growth inhibition (SRB), leukemia; settings: 10 μM
In short: as §1

[23] = system: NCI/ADR-RES; test: NCI 60 panel growth inhibition (SRB), ovarian cancer; settings: 10 μM
In short: as §1

[24] = system: OVCAR-4; test: as above; settings: OVCAR-4, 10 μM
In short: as §1

[25] = system: SK-OV-3; test: as above; settings: SK-OV-3, 10 μM
In short: as §1

[26] = system: IGROV1; test: as above; settings: IGROV1, 10 μM
In short: as §1

[27] = system: OVCAR-8; test: as above; settings: OVCAR-8, 10 μM
In short: as §1

[28] = system: OVCAR-5; test: as above; settings: OVCAR-5, 10 μM
In short: as §1

[29] = system: OVCAR-3; test: as above; settings: OVCAR-3, 10 μM
In short: as §1

[30] = system: UACC-62; test: NCI 60 panel growth inhibition (SRB), melanoma; settings: UACC-62, 10 μM
In short: as §1

[31] = system: SK-MEL-5; test: NCI 60 panel growth inhibition (SRB), melanoma; settings: SK-MEL-5, 10 μM
In short: as §1

[32] = system: SK-MEL-28; test: NCI 60 panel growth inhibition (SRB), melanoma; settings: SK-MEL-28, 10 μM
In short: as §1

[33] = system: UACC-257; test: NCI 60 panel growth inhibition (SRB), melanoma; settings: UACC-257, 10 μM
In short: as §1

[34] = system: M14; test: NCI 60 panel growth inhibition (SRB), melanoma; settings: M14, 10 μM
In short: as §1

[35] = system: LOX IMVI; test: NCI 60 panel growth inhibition (SRB), melanoma; settings: 10 μM
In short: as §1

Compound | GI% [1] [%] | GI% [2] [%] | GI% [3] [%] | GI% [4] [%] | GI% [5] [%] | GI% [6] | GI% [7] [%] | GI% [8] | GI% [9] [%] | GI% [10] [%] | GI% [11] | GI% [12] [%] | GI% [13] | GI% [14] [%] | GI% [15] [%] | GI% [16] | GI% [17] [%] | GI% [18] [%] | GI% [19] [%] | GI% [20] | other results
COc1cccc(-c2nc3ccccc3s2)c1OCC(=O)NN=C1C(=O)Nc2ccc(C)cc21 [Compound 9h, 2-(2-(Benzo[d]thiazol-2-yl)-6-methoxyphenoxy)-N′-(5-methyl-2-oxoindolin-3-ylidene)acetohydrazide] | 18.44 | 37.74 | 41.06 | 26.10 | 13.89 | 9.01% | 46.62 | – (GI% < 5%) | 38.34 | 11.83 | – (GI% < 5%) | 36.68 | – (GI% < 5%) | 9.88 | 25.38 | 9.21% | 43.65 | 54.14 | 26.17 | – (GI% < 5%) | GI% [21]: 47.56%; GI% [22]: – (GI% < 5%); GI% [23]: 14.65%; GI% [24]: 20.46%; GI% [25]: 14.52%; GI% [26]: 6.64%; GI% [27]: 12.04%; GI% [28]: – (GI% < 5%); GI% [29]: – (GI% < 5%); GI% [30]: 34.75%; GI% [31]: 62.94%; GI% [32]: – (GI% < 5%); GI% [33]: – (GI% < 5%); GI% [34]: 9.67%; GI% [35]: – (GI% < 5%)
COc1cccc(-c2nc3ccccc3s2)c1OCC(=O)NN=C1C(=O)Nc2ccccc21 [Compound 9g, 2-(2-(Benzo[d]thiazol-2-yl)-6-methoxyphenoxy)-N′-(2-oxoindolin-3-ylidene)acetohydrazide] | 25.83 | 26.62 | 29.32 | 50.47 | 18.32 | 16.30% | 44.41 | – (GI% < 5%) | 41.81 | 14.78 | – (GI% < 5%) | 34.75 | – (GI% < 5%) | 18.49 | 35.85 | – (GI% < 5%) | 49.06 | 50.80 | 32.23 | 15.30% | GI% [21]: 41.07%; GI% [22]: 18.95%; GI% [23]: 28.45%; GI% [24]: 27.14%; GI% [25]: 8.22%; GI% [26]: 7.95%; GI% [27]: 10.62%; GI% [28]: – (GI% < 5%); GI% [29]: – (GI% < 5%); GI% [30]: 46.29%; GI% [31]: 95.02%; GI% [32]: – (GI% < 5%); GI% [33]: – (GI% < 5%); GI% [34]: – (GI% < 5%); GI% [35]: 25.54%
Cc1ccc2c(c1)C(=NNC(=O)COc1ccccc1-c1nc3ccccc3s1)C(=O)N2 [Compound 9b, 2-(2-(Benzo[d]thiazol-2-yl)phenoxy)-N′-(5-methyl-2-oxoindolin-3-ylidene)acetohydrazide] | 50.79 | 64.25 | 48.54 | 90.93 | 63.76 | 58.35% | 22.82 | 22.75% | 27.53 | 52.92 | 93.55% | 41.90 | 5.48% | 61.93 | 134.59 | 57.65% | 29.12 | 30.53 | 20.57 | 8.38% | GI% [21]: 23.64%; GI% [22]: 18.71%; GI% [23]: 71.87%; GI% [24]: 99.49%; GI% [25]: 15.84%; GI% [26]: 35.91%; GI% [27]: 57.37%; GI% [28]: 7.29%; GI% [29]: 79.13%; GI% [30]: 33.71%; GI% [31]: 62.70%; GI% [32]: – (GI% < 5%); GI% [33]: – (GI% < 5%); GI% [34]: 11.64%; GI% [35]: 84.01%
COc1ccc2c(c1)C(=NNC(=O)COc1c(OC)cccc1-c1nc3ccccc3s1)C(=O)N2 [Compound 9i, 2-(2-(Benzo[d]thiazol-2-yl)-6-methoxyphenoxy)-N′-(5-methoxy-2-oxoindolin-3-ylidene)acetohydrazide] | 16.10 | 23.12 | 37.57 | 30.66 | 10.30 | – (GI% < 5%) | 43.62 | – (GI% < 5%) | 30.29 | 6.51 | – (GI% < 5%) | 24.98 | – (GI% < 5%) | 14.66 | 15.41 | 5.62% | 45.30 | 47.68 | 21.95 | – (GI% < 5%) | GI% [21]: 44.24%; GI% [22]: – (GI% < 5%); GI% [23]: 10.58%; GI% [24]: 20.14%; GI% [25]: 9.98%; GI% [26]: – (GI% < 5%); GI% [27]: 11.59%; GI% [28]: – (GI% < 5%); GI% [29]: – (GI% < 5%); GI% [30]: 25.33%; GI% [31]: 51.82%; GI% [32]: – (GI% < 5%); GI% [33]: – (GI% < 5%); GI% [34]: 7.92%; GI% [35]: – (GI% < 5%)
